Measured values published in patent publication EP3360550A1, “MOLECULES AND PHARMACEUTICAL COMPOSITIONS, IN PARTICULAR FOR TREATING A GENETIC BLOOD DISORDER” (Université de La Réunion, priority 2017, dated 2018).

How the values were obtained:
[1] = tested on: RBCs; test: Control of hemolysis (RBC count with CASY Cell Counter and Analyzer); assay type: cell-based; conditions: for decrease of RBC concentration compared to vehicle (DMSO) alone: 0.1 mM, 30 min at room temperature; for RBCs/ml (x10^6): RBCs at 6x10^6 cells/ml incubated with molecule at 0.1 mM for 30 min at room temperature
Procedure: At the end of the 30 min of incubation with the molecules, the number of RBC for the control of hemolysis was measure by using CASY® Cell Counter and Analyzer.
For hemolysis assays, RBCs were suspended at 6x10^6 cells/ml in the Hanks/0.4% BSA buffer and the concentration measured accurately using the CASY® Cell Counter and Analyzer. RBCs were then incubated or not with solutions comprising either Molecule 1, Molecule 2 or Molecule 3 at 0.1 mM or DMSO, for 30 min at room temperature. After this incubation time cell concentration was measured again using CASY® Cell Counter and Analyzer (Table 1). If hemolysis occurs during this incubation time it will be reflected by a decrease in the RBC concentration.

[2] = tested on: laminin 521; test: Red blood cell adhesion to laminin 521 under flow conditions; assay type: cell-based, human; conditions: for RBC adhesion to laminin: RBCs from sickle cell disease patients incubated with molecule at 0.1 mM for 30 min at room temperature, 3 blood samples, Figure 1; for inhibition of RBC adhesion to laminin (dose effect): increasing concentrations 50, 100 and 200 µM, same conditions as in Example 1, Figure 2
Procedure: Red blood cell adhesion to laminin 521 was measured under flow conditions using Vena8 Endothelial+™ biochips (internal channel dimensions: length 20 mm, width 0.8 mm, height 0.12 mm) and ExiGo™ Nanopumps (Cellix Ltd, Dublin, Ireland). Three different solutions were prepared with either Molecule 1, Molecule 2 or Molecule 3 (0.1 mM) by solubilizing Molecule 1, 2 or 3 using DMSO. Recombinant human laminin 521 (BioLamina) at 5 ng/µl was immobilized on the internal surface of the biochips at 4°C overnight. RBCs from sickle cell disease patients were suspended at 5x10^7 cells/ml in Hanks balanced salt solution, without calcium chloride and magnesium sulfate (Sigma-Aldrich) supplemented with 0.4% BSA, and incubated with the solution comprising either Molecule 1, Molecule 2 or Molecule 3 at 0.1 mM or DMSO for 30 min at room temperature (20°C) and perfused through the biochip channels for 10 min at a shear stress of 0.5 dyn/cm^2 followed by a washout at the same shear stress with the buffer alone for 30 min. Five minutes washouts with the Hanks/0.4% BSA buffer were performed at 1, 2, 3, 4 and 5 dyn/cm^2. After each wash, adherent RBCs were counted in 7 representative areas along the centerline of each channel using the AxioObserver Z1 microscope and ZEN analysis software (Carl Zeiss, Le Pecq, France) and the mean number of adherent RBCs was determined for each condition and each washout step (Figure 1). Images of the same 7 areas were obtained throughout each experiment. Three adhesion assays were performed with 3 different blood samples. RBC adhesion to laminin was inhibited when the RBC suspension was incubated with Molecule 2 or 3, but not Molecule 1.
To address the dose effect of the molecules, adhesion assays were performed in the same conditions as in Example 1, using the following concentrations for Molecule 1, 2 or 3: • 50, 100 and 200 µM.

**Q.** For `CCC(=O)N1CCc2ccc(OCc3nc(C(=O)NCc4ccccc4)co3)cc2C1c1ccc(C)cc1` (stereo not drawn) [Molecule 1], which “decrease of RBC concentration compared to vehicle (DMSO) alone” value [1] is on record?
**A.** Its value is “no decrease”.

**Q.** What about the “RBCs/ml (x10^6)” value [1] of the same molecule?
**A.** The value was 6.04 RBCs/ml (x10^6).

**Q.** For `Cc1c(CC(=O)NC(C(=O)O)c2ccccc2)c(=O)oc2c(C)c3oc4c(c3cc12)CCCC4` (stereo not drawn) [Molecule 2], which “RBC adhesion to laminin” value [2] is on record?
**A.** The value was “inhibited”.

**Q.** And the “inhibition of RBC adhesion to laminin (dose effect)” value [2]?
**A.** The value was “increasing inhibition”.

**Q.** And the “RBCs/ml (x10^6)” value [1]?
**A.** The value was 5.55 RBCs/ml (x10^6).

**Q.** `O=S(=O)(O)CCCn1c(=NN=Cc2c(O)ccc3ccccc23)sc2ccccc21` [Molecule 3] was tested. Which “RBC adhesion to laminin” value [2] did it give?
**A.** The value was “inhibited”.

**Q.** What about the “inhibition of RBC adhesion to laminin (dose effect)” value [2] of the same molecule?
**A.** The value was “increasing inhibition”.

**Q.** What about the “decrease of RBC concentration compared to vehicle (DMSO) alone” value [1] of the same molecule?
**A.** Its value is “no decrease”.

**Q.** What about the “RBCs/ml (x10^6)” value [1] of the same molecule?
**A.** The value was 6.02 RBCs/ml (x10^6).
